“Also recorded” adds a separate entry of the source. Like-named read-outs stand apart in the source and are kept apart here.
Columns and labels:
[1] = target: T1, CD38 catalytic domain (shCD38) (Homo sapiens, UniProt P28907, N100D/N164A/N209D/N219D); design: incubating 1 μM cADPR with 1 μg/mL CD38 catalytic domain for 10 min; made in house; conditions: equivalent 8-substituted cIDPRs; read-out: IC50, inhibition of shCD38-mediated cADPR hydrolysis; cited from earlier work
T1 sequence (P28907 43-300 N100D/N164A/N209D/N219D limits assumed): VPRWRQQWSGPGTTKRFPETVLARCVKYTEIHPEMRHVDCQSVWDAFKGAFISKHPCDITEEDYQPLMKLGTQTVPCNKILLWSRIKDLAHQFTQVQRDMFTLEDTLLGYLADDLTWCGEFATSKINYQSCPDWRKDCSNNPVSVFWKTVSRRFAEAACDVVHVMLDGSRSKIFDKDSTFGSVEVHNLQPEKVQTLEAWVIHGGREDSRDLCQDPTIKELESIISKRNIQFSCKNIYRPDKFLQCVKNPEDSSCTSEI

[2] = cited from earlier work
[3] = cited from earlier work; remark: listed apart in the source
[4] = target: T1, CD38 catalytic domain (shCD38); assay: RP-HPLC study of ligand hydrolysis by shCD38; conditions: for hydrolysis by shCD38 at enzyme assay concentration: shCD38 1 μg/mL; for hydrolysis by shCD38 at enzyme assay concentration / hydrolysis by shCD38 at high concentration / time to 50% hydrolysis: ligand 1 mM; for hydrolysis by shCD38 at high concentration / time to 50% hydrolysis: shCD38 4 mg/mL; for time to 50% hydrolysis: Tris-HCl pH 8, room temperature
Protocol: Incubation of 7 (1 mM final concentration) with 4 mg/mL shCD38 was monitored using RP-HPLC.
Therefore, further HPLC experiments were carried out using shCD38 concentrations of 1 μg/mL and either cIDPR or 7 to observe the effect of CD38 under conditions that reflect the enzyme assay (Supporting Information, Figure S3).
The solution containing the CD38 catalytic domain was adjusted to the desired concentration using Tris-HCl buffer (20 mM, pH 8), and 50 μL therefrom was added to the inhibitor (0.05 μmol) in an Eppendorf tube at room temperature. At a given time point, a sample of 5 μL was removed and diluted with 95 μL of Milli-Q water. Then 10 μL of this sample was injected directly into the analytical HPLC system (see section General in Experimental Section), eluting at 1 mL/min with an isocratic ion-pair buffer: 0.17% (m/v) cetrimide and 45% (v/v) phosphate buffer (pH 6.4) in MeOH.

[5] = tested on: Ca^2+-release in permeabilized T-cells; design: method as in PMID 12932045, PMID 19492987; conditions: cited from earlier work
[6] = target: T1, CD38 catalytic domain (shCD38); assay: Inhibition of shCD38-mediated cADPR hydrolysis (fluorimetric cycling assay); format: biochemical; design: incubating 1 μM cADPR with 1 μg/mL CD38 catalytic domain for 10 min; made in house; conditions: 1 μM cADPR, 1 μg/mL CD38 catalytic domain, 10 min, 20–24 °C, 25 mM sodium acetate pH 4.5
Protocol: The inhibition of cADPR hydrolysis by various concentrations of analog (0–1 mM) was determined by incubating 1 μM cADPR with 1 μg/mL CD38 catalytic domain for 10 min at 20–24 °C in 25 mM sodium acetate, pH 4.5. The reaction was stopped by the addition of 150 mM HCl. The precipitated protein was filtered, and the pH was neutralized with Tris base. After the mixture was diluted 20-fold, the concentration of the unhydrolyzed cADPR present in the diluted reaction mixture was assayed by the fluorimetric cycling assay as described previously.[52]

Nc1nc2c(=O)n3cnc2n1C1OC(COP(=O)(O)OP(=O)(O)OCC2OC3C(O)C2O)C(O)C1O (stereo not drawn) [8-NH2-cIDPR]
IC50 [1]: 56 µM

N=c1c2ncn3c2ncn1[C@@H]1O[C@H](COP(=O)(O)OP(=O)(O)OC[C@H]2O[C@@H]3[C@H](O)[C@@H]2O)[C@@H](O)[C@H]1O [cADPR, Cyclic adenosine 5′-diphosphate ribose]
pKa of the N6-amino form [2]: 8.3 | hydrolysis at the N1 link ([3]; neutral aqueous solution and physiological conditions): hydrolyzed at the N1 link in both neutral aqueous solution and under physiological conditions

N=c1c2ncn3c2ncn1[C@@H]1C[C@H](COP(=O)(O)OP(=O)(O)OC[C@H]2O[C@@H]3[C@H](O)[C@@H]2O)[C@@H](O)[C@H]1O [cADPcR, cyclic adenosine 5′-diphosphate carbocyclic ribose]
pKa of the N6-amino dissociation [2]: 8.9

O=c1c2ncn3c2ncn1[C@@H]1O[C@H](COP(=O)(O)OP(=O)(O)OC[C@H]2O[C@@H]3[C@H](O)[C@@H]2O)[C@@H](O)[C@H]1O [compound 2, N1-cyclic inosine 5′-diphosphate ribose]
hydrolysis by shCD38 at enzyme assay concentration ([4]; listed as cIDPR): neither cIDPR (2) or 8-NH2-N9-butyl-; also recorded: not hydrolyzed | hydrolysis by shCD38 at high concentration [4]: hydrolyzed by the enzyme at 4 mg/mL but at a slower rate than 7 | time to 50% hydrolysis [4]: 420 min | ionization over the pH range [2]: no ionization between 6.8 and 10.9 | Ca2+-release agonism ([5]; permeabilized T-cells): agonist for Ca^2+-release with almost equivalent potency to cADPR | chemical and biological stability [3]: Chemically and biologically stable

O=c1c2nc(Br)n3c2ncn1[C@@H]1O[C@H](COP(=O)(O)OP(=O)(O)OC[C@H]2O[C@@H]3[C@H](O)[C@@H]2O)[C@@H](O)[C@H]1O [compound 3]
Ca2+-release agonism, membrane permeant [5]: stable membrane permeant agonist of Ca^2+ release | chemical and biological stability [3]: Chemically and biologically stable

O=c1c2ncn3c2ncn1[C@@H]1O[C@H](COP(=O)(O)OP(=O)(O)OCCCC3)[C@@H](O)[C@H]1O [compound 4, N1-Cyclic Hypoxanthine-N9-hydroxybutyl Diphosphate Ribose]
hydrolysis by shCD38 at high concentration [4]: hydrolyzed by the enzyme at 4 mg/mL but at a slower rate than 7

O=c1c2nc(Br)n3c2ncn1[C@@H]1O[C@H](COP(=O)(O)OP(=O)(O)OCCCC3)[C@@H](O)[C@H]1O [compound 5, N1-Cyclic-8-bromohypoxanthine-N9-hydroxybutyl Diphosphate Ribose]
hydrolysis by shCD38 at high concentration [4]: hydrolyzed by the enzyme at 4 mg/mL but at a slower rate than 7 | IC50 [6]: 27 µM

[N-]=[N+]=Nc1nc2c(=O)n3cnc2n1CCCCOP(=O)(O)OP(=O)(O)OC[C@H]1O[C@@H]3[C@H](O)[C@@H]1O [compound 6, N1-Cyclic-8-azidohypoxanthine-N9-hydroxybutyl Diphosphate Ribose]
IC50 [6]: 6.4 µM

Nc1nc2c(=O)n3cnc2n1CCCCOP(=O)(O)OP(=O)(O)OC[C@H]1O[C@@H]3[C@H](O)[C@@H]1O [compound 7, N1-Cyclic-8-aminohypoxanthine-N9-hydroxybutyl Diphosphate Ribose]
change of the ligand peak in the control without shCD38 ([4]; parallel control containing no shCD38): no change in the original peak | hydrolysis by shCD38 at enzyme assay concentration [4]: not hydrolyzed | hydrolysis by shCD38 at high concentration [4]: faster hydrolysis | time to 50% hydrolysis [4]: 105 min | IC50 [6]: 3.3 µM

— article PMC4207131, “Cyclic Adenosine 5′-Diphosphate Ribose Analogs without a “Southern” Ribose Inhibit ADP-ribosyl Cyclase–Hydrolase CD38” (Journal of Medicinal Chemistry, 2014)
